From PubChem BioAssay AID1963830 (Molecular Pharmacology Branch, DTP, NCI, 2024)

Tested on: 922993-354-T-J3-PDC complex spheroid viability
Test: Anticancer human tumor 922993-354-T-J3-PDC patient-derived endometrial carcinoma cell line growth inhibition [POLQ]
Conditions: for IC50: curve of first compound; for viability, T/C: stronger effect = lower value
Procedure: Multicellular complex tumor spheroid response to Polymerase (POL) inhibitors (novobiocin, ART-558, RP6685) in combination with a variety of drugs and investigational agents in selected tumor cell lines
The POL inhibitors (novobiocin, ART-558, and RP6685) were evaluated both individually and in combination with standard of care and investigational anticancer small molecules within a complex spheroid model of solid tumors. . Complex spheroids include a stromal component modeled by human endothelial cells (HUVEC) and fibroblasts modeled by human mesenchymal stem cells (MSCs). The concentration ranges selected for each drug and investigational agent were based upon clinically achievable concentrations if the clinical Cmax of the agent was known.
Compounds. The drugs and investigational agents: novobiocin (NSC847541), ART-558 (NSC835418), RP-6685 (NSC848927), peposertib (NSC802822), ceralasertib (NSC780249), elimusertib (NSC800525), camonsertib (NSC841442), AZD-1390 (NSC803789), olaparib (NSC753686), talazoparib (NSC767125), rucaparib (NSC756644), sotorasib (NSC818433), MRTX-1133 (NSC836407), SN-38 (NSC673596), topotecan (NSC609699), epotoside (NSC141540), doxorubicin (NSC123127), gemcitabine (NSC613327), 5-fluorouracil (NSC19893), paclitaxel (NSC125973), vemurafenib (NSC761431), MSA-2 (NSC828583), SN-011 (NSC837082), adavosertib (NSC754352), prexasertib (NSC758257), carboplatin (NSC241240) and oxaliplatin (NSC266046), were obtained from the National Cancer Institute (NCI) Developmental Therapeutics Program Chemical Repository (21). The FDA-approved anticancer drug set is available from the Developmental Therapeutics Program at https://dtp.cancer.gov/organization/dscb/obtaining/. […] The stock solutions were prepared in dimethyl sulfoxide (DMSO, Sigma-Aldrich, St. Louis, MO, cat. D2650), except for the platinum compounds which were prepared in saline (Quality Biological, Gaithersburg, MD, cat. 114-055-101), at 800-fold the tested concentration and stored at -70 degrees C prior to their use. All drugs and investigational agents were tested over a range starting from a high concentration at or near the clinical Cmax and decreasing in half-log increments. If the clinical Cmax for an agent had not been determined, the highest concentration tested was 10 microM, except for SN-38, which was tested at a high concentration of 1 microM.
Cell Culture. All cells were maintained in an incubator at 37 degrees C and 5% CO2 with 95% humidity. The PDC lines were cultured according to standard operating procedures established by the NCI PDMR (https://pdmr.cancer.gov). Table 3 of the manuscript, lists the cell lines along with the number of the three cell types plated to form the mct-spheroids and media for tumor cell growth. After thawing, all PDC lines, except 997537-175-T-J1-PDC and 415267-285-R-J2-PDC, were cultured in Matrigel-coated flasks prepared with a working solution of 1X Ham's F-12 nutrient mix, without supplementation (Thermo Fisher Scientific, cat. 11765054), 100 U/mL penicillin-streptomycin (Thermo Fisher Scientific, cat. 15140122), and 2.5% Matrigel (Corning Inc., Corning, NY, cat. 354248) for the first three passages. The two PDC lines 997537-175-T-J1-PDC and 415267-285-R-J2-PDC were cultured on uncoated flasks. The 857933-349-R-J2-PDC line was cultured in 6C/Colon 1B media containing advanced DMEM/F-12 (Thermo Fisher Scientific, cat. 12634028), 10 mM HEPES (Thermo Fisher Scientific, cat. 15630080), 1X GlutaMAX supplement (Thermo Fisher Scientific, cat. 35050061), 0.1 mg/mL primocin (InvivoGen, San Diego, CA, cat. ant-pm-2), 10% defined fetal bovine serum, heat inactivated (HyClone Laboratories Inc., Logan, UT, cat. SH30070.03HI), 50% L-WRN conditioned media (ATCC, cat. CRL-3276), 1.25 mM N-Acetyl-L-cysteine (Sigma-Aldrich, cat. A9165), 10 mM nicotinamide (Sigma-Aldrich, cat. N0636), 1X B-27 supplement (Thermo Fisher Scientific, cat. 17504044), 1X N-2 supplement (Thermo Fisher Scientific, cat. […]

[1] = second compound 0.0316 µM, first compound 0.0316 µM
[2] = second compound 0.0316 µM, first compound 0.1 µM
[3] = second compound 0.0316 µM, first compound 0.316 µM
[4] = second compound 0.0316 µM, first compound 1 µM
[5] = second compound 0.0316 µM, first compound 3.16 µM
[6] = second compound 0.0316 µM, first compound 10 µM
[7] = second compound 0.1 µM, first compound 0.0316 µM
[8] = second compound 0.1 µM, first compound 0.1 µM
[9] = second compound 0.1 µM, first compound 0.316 µM
[10] = second compound 0.1 µM, first compound 1 µM
[11] = second compound 0.1 µM, first compound 3.16 µM
[12] = second compound 0.1 µM, first compound 10 µM
[13] = second compound 0.316 µM, first compound 0.0316 µM
[14] = second compound 0.316 µM, first compound 0.1 µM
[15] = second compound 0.316 µM, first compound 0.316 µM
[16] = second compound 0.316 µM, first compound 1 µM
[17] = second compound 0.316 µM, first compound 3.16 µM
[18] = second compound 0.316 µM, first compound 10 µM
[19] = second compound 1 µM, first compound 0.0316 µM
[20] = second compound 1 µM, first compound 0.1 µM
[21] = second compound 1 µM, first compound 0.316 µM
[22] = second compound 1 µM, first compound 1 µM
[23] = second compound 1 µM, first compound 3.16 µM
[24] = second compound 1 µM, first compound 10 µM
[25] = second compound 3.16 µM, first compound 0.0316 µM
[26] = second compound 3.16 µM, first compound 0.1 µM
[27] = second compound 3.16 µM, first compound 0.316 µM
[28] = second compound 3.16 µM, first compound 1 µM
[29] = second compound 3.16 µM, first compound 3.16 µM
[30] = second compound 3.16 µM, first compound 10 µM
[31] = second compound 10 µM, first compound 0.0316 µM
[32] = second compound 10 µM, first compound 0.1 µM
[33] = second compound 10 µM, first compound 0.316 µM
[34] = second compound 10 µM, first compound 1 µM
[35] = second compound 10 µM, first compound 3.16 µM
[36] = second compound 10 µM, first compound 10 µM
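Further: spheroids exposed to the agents for one week.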
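Wherever viability, T/C is given: 100% = DMSO vehicle control wells.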

How did the IC50 (second compound 0.0316 µM) turn out when `COc1cccc2c1C(=O)c1c(O)c3c(c(O)c1C2=O)CC(O)(C(=O)CO)CC3OC1CC(N)C(O)C(C)O1` (centres undefined) + COC1C(OC(N)=O)C(O)C(Oc2ccc3c(O)c(NC(=O)c4ccc(O)c(CC=C(C)C)c4)c(=O)oc3c2C)OC1(C)C was run?
The IC50 was 1.35 µM.

And the IC50 (second compound 0.1 µM)?
Its IC50 is 0.997 µM.

And the IC50 (second compound 0.316 µM)?
The IC50 was 1.08 µM.

What about the IC50 (second compound 1 µM) of the same compound?
The IC50 was 0.899 µM.

What about the IC50 (second compound 3.16 µM) of the same compound?
Its IC50 is 0.893 µM.

And the IC50 (second compound 10 µM)?
Its IC50 is 0.723 µM.

What about the viability, T/C [1] of the same compound?
The viability, T/C was 104%.

What about the viability, T/C [2] of the same compound?
Its viability, T/C is 88.8%.

What about the viability, T/C [3] of the same compound?
Its viability, T/C is 80.7%.

And the viability, T/C [4]?
Its viability, T/C is 53.3%.

And the viability, T/C [5]?
The viability, T/C was 33.9%.

What about the viability, T/C [6] of the same compound?
Its viability, T/C is 10.1%.

And the viability, T/C [7]?
Its viability, T/C is 97.2%.

And the viability, T/C [8]?
The viability, T/C was 101%.

And the viability, T/C [9]?
The viability, T/C was 88.6%.

What about the viability, T/C [10] of the same compound?
Its viability, T/C is 48%.

What about the viability, T/C [11] of the same compound?
Its viability, T/C is 21.8%.

And the viability, T/C [12]?
Its viability, T/C is 8.62%.

What about the viability, T/C [13] of the same compound?
Its viability, T/C is 105%.

And the viability, T/C [14]?
The viability, T/C was 91.9%.

What about the viability, T/C [15] of the same compound?
The viability, T/C was 77.3%.

What about the viability, T/C [16] of the same compound?
Its viability, T/C is 50.7%.

And the viability, T/C [17]?
The viability, T/C was 28.7%.

What about the viability, T/C [18] of the same compound?
The viability, T/C was 12.9%.

And the viability, T/C [19]?
Its viability, T/C is 102%.

What about the viability, T/C [20] of the same compound?
Its viability, T/C is 96.1%.

And the viability, T/C [21]?
The viability, T/C was 68.7%.

And the viability, T/C [22]?
The viability, T/C was 45.8%.

What about the viability, T/C [23] of the same compound?
The viability, T/C was 30.9%.

And the viability, T/C [24]?
The viability, T/C was 10.7%.

And the viability, T/C [25]?
Its viability, T/C is 94.5%.

What about the viability, T/C [26] of the same compound?
The viability, T/C was 100%.

And the viability, T/C [27]?
Its viability, T/C is 87.1%.

And the viability, T/C [28]?
Its viability, T/C is 44.7%.

What about the viability, T/C [29] of the same compound?
The viability, T/C was 21.6%.

What about the viability, T/C [30] of the same compound?
The viability, T/C was 10.8%.

What about the viability, T/C [31] of the same compound?
Its viability, T/C is 86.4%.

What about the viability, T/C [32] of the same compound?
The viability, T/C was 90.8%.

What about the viability, T/C [33] of the same compound?
The viability, T/C was 68.7%.

What about the viability, T/C [34] of the same compound?
Its viability, T/C is 41.1%.

And the viability, T/C [35]?
The viability, T/C was 22.8%.

What about the viability, T/C [36] of the same compound?
The viability, T/C was 10.4%.

What does the source list for `CCc1cc2c(N3CCc4c(cc(Cn5ccnc5)cc4-c4cn(C)nc4C(F)(F)F)C3=O)cc(C)nc2c(OC)n1` + Cc1cccc(N(C)C(=O)C2C(O)CCN2c2nc(C)cc(C(F)(F)F)c2C#N)c1?
IC50 (second compound 0.0316 µM): > 10 µM; IC50 (second compound 0.1 µM): > 10 µM; IC50 (second compound 0.316 µM): > 10 µM; IC50 (second compound 1 µM): > 10 µM; IC50 (second compound 3.16 µM): > 10 µM; IC50 (second compound 10 µM): > 10 µM; viability, T/C [1]: 101%; viability, T/C [2]: 105%; viability, T/C [3]: 109%; viability, T/C [4]: 107%; viability, T/C [5]: 102%; viability, T/C [6]: 91.7%; viability, T/C [7]: 109%; viability, T/C [8]: 101%; viability, T/C [9]: 108%; viability, T/C [10]: 105%; viability, T/C [11]: 106%; viability, T/C [12]: 97%; viability, T/C [13]: 103%; viability, T/C [14]: 103%; viability, T/C [15]: 107%; viability, T/C [16]: 108%; viability, T/C [17]: 110%; viability, T/C [18]: 98.7%; viability, T/C [19]: 102%; viability, T/C [20]: 103%; viability, T/C [21]: 107%; viability, T/C [22]: 105%; viability, T/C [23]: 108%; viability, T/C [24]: 101%; viability, T/C [25]: 103%; viability, T/C [26]: 104%; viability, T/C [27]: 106%; viability, T/C [28]: 105%; viability, T/C [29]: 104%; viability, T/C [30]: 99.7%; viability, T/C [31]: 93.4%; viability, T/C [32]: 104%; viability, T/C [33]: 105%; viability, T/C [34]: 102%; viability, T/C [35]: 107%; viability, T/C [36]: 98.2%
